For experiment [1], the target named is GDP-bound protein (aa 1-169), containing both G12C and C118A amino acid substitutions (Homo sapiens, UniProt P01116, C118A/G12C). Briefly: Coupled Nucleotide Exchange Assay (SOS-mediated nucleotide exchange, AlphaScreen). The format is biochemical. To be noted: 2 hours compound pre-incubation. The essentials:
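His-tagged GDP-bound […] (aa 1-169, G12C/C118A) pre-incubated 2 h with compound titration in 25 mM HEPES pH 7.4, 10 mM MgCl2, 0.01% Triton X-100.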
(Bead proximity is the source of the signal in Alpha formats.)

For experiment [2], the system named is Phosphorylation of ERK½ in MIA PaCa-2 cells. Briefly: Phospho-ERK½ MSD Assay in MIA PaCa-2 cells. The class given is cell-based. To be noted: Homo sapiens, MIA PaCa-2, MIA PaCa-2 cells; 4 hours compound treatment; 10 ng/mL EGF for 10 min; read-out: p-ERK IC50 (MIA PaCa-2). In short, it runs like this: (§1)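 MIA PaCa-2 or A549 cells (25,000/well, RPMI with 10% FBS) exposed to compound titration for 4 h at 37 °C, then stimulated with 10 ng/mL EGF for 10 min and lysed in RIPA. Phospho-ERK1/2 quantified by MSD whole-cell lysate immunoassay; IC50 from 4-parameter logistic fit.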

Experiment [3] concerns Phosphorylation of ERK½ in A549 cells. As to the kind of experiment: Phospho-ERK½ MSD Assay in A549 cells. The class given is cell-based. To be noted: Homo sapiens, A549, A549 cells; 4 hours compound treatment; 10 ng/mL EGF for 10 min; read-out: p-ERK IC50 (A549). In short, it runs like this: as §1

Chain of GDP-bound protein (aa 1-169), containing both G12C and C118A amino acid substitutions (P01116 1-169 isoform P01116-2 G12C/C118A): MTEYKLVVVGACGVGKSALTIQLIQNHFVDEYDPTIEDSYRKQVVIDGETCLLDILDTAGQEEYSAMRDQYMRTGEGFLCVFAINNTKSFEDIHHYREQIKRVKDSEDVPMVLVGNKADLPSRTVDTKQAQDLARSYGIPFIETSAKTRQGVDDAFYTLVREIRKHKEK

What is called IC50 is the concentration that gives 50% inhibition. Regarding `C=CC(=O)N1C[C@@H]2[C@H]1CCN2c1snc2c(F)c(-c3cc(O)cc4ccccc34)c(Cl)cc12` (racemic) [Example 5-8, 1-(cis-2-(5-Chloro-7-fluoro-6-(3-hydroxy-1-naphthalenyl)-2,1-benzothiazol-3-yl)-2,6-diazabicyclo[3.2.0]heptan-6-yl)-2-propen-1-one], in experiment [1], the “Coupled exchange IC50” value is 0.433 µM. Besides, the IC50 in experiment [2] was 1.2 µM; in experiment [3], over 33.3 µM.

`C=CC(=O)N1CCN(c2nnc(-c3cc(Cl)ccc3C)c3cc(-c4c(O)cccc4F)c(Cl)cc23)CC1` [Example 10-3, 1-(4-(7-chloro-4-(5-chloro-2-methylphenyl)-6-(2-fluoro-6-hydroxyphenyl)-1-phthalazinyl)-1-piperazinyl)-2-propen-1-one]: the “Coupled exchange IC50” value in experiment [1] was 1.10 µM. Further, the IC50 is 9.33 µM in experiment [2] and over 100 µM in experiment [3].

Regarding `C=CC(=O)N1CCN(c2snc3c(F)c(-c4cc(O)cc5ccccc45)c(Cl)cc23)C(CO)C1` (racemic) [Example 1-18, 1-(4-(5-chloro-7-fluoro-6-(3-hydroxy-1-naphthalenyl)-2,1-benzothiazol-3-yl)-3-(hydroxymethyl)-1-piperazinyl)-2-propen-1-one], in experiment [1], the “Coupled exchange IC50” value was found to be 0.370 µM. Further, the values for the IC50 in experiment [2] and in experiment [3] were 0.559 µM and over 33.3 µM, respectively.

With `C=CC(=O)N1CCN(c2snc3cc(-c4c(O)cccc4F)c(Cl)cc23)CC1` [Example 1-6, 1-(4-(5-chloro-6-(2-fluoro-6-hydroxyphenyl)-2,1-benzothiazol-3-yl)-1-piperazinyl)-2-propen-1-one], the “Coupled exchange IC50” value in experiment [1] is 2.88 µM. Further, the IC50 was 36.2 µM in experiment [2] and over 100 µM in experiment [3].

On to `C=CC(=O)N1CCN(c2snc3c(F)c(-c4cccc5ccccc45)c(Cl)cc23)CC1` [Example 3-23, 1-(4-(5-chloro-7-fluoro-6-(naphthalen-1-yl)benzo[c]isothiazol-3-yl)piperazin-1-yl)prop-2-en-1-one], for which, in experiment [1], the “Coupled exchange IC50” value was 4.65 µM. For the same molecule, the IC50 in experiment [2] is 13.6 µM; in experiment [3], over 100 µM.

Regarding `C=CC(=O)N1CCN(c2snc3c(F)c(-c4cc(O)cc5ccccc45)c(Cl)cc23)C[C@@H]1C` [Example 5-4, 1-((2S)-4-(5-chloro-7-fluoro-6-(3-hydroxy-1-naphthalenyl)-2,1-benzothiazol-3-yl)-2-methyl-1-piperazinyl)-2-propen-1-one], the “Coupled exchange IC50” value in experiment [1] turned out to be 0.610 µM. In addition, the values for the IC50 in experiment [2] and in experiment [3] were 3.25 µM and over 100 µM, respectively.

Regarding `C=CC(=O)N1CCN(c2nnc(Cc3ccccc3)c3cc(-c4c(O)cccc4F)c(Cl)cc23)CC1` [Example 35, 2-(1-(4-acryloyl-1-piperazinyl)-4-benzyl-7-chloro-6-phthalazinyl)-3-fluorophenol], the “Coupled exchange IC50” value in experiment [1] came to 8.01 µM. The IC50 in experiment [2] was 79.7 µM; in experiment [3], over 100 µM.

On to `C=CC(=O)N1CCN(c2snc3c(F)c(-c4cc(N)ccc4Cl)c(Cl)cc23)CC1` [Example 3-19, 1-(4-(6-(5-amino-2-chlorophenyl)-5-chloro-7-fluoro-2,1-benzothiazol-3-yl)-1-piperazinyl)-2-propen-1-one], for which the “Coupled exchange IC50” value in experiment [1] was found to be 0.954 µM. The IC50 in experiment [2] was 2.03 µM; in experiment [3] it was over 33.3 µM.

As for `C=CC(=O)N1CCN(c2snc3c(F)c(-c4c[nH]c5ccccc45)c(Cl)cc23)CC1` [Example 1-2, 1-(4-(5-chloro-7-fluoro-6-(1H-indol-3-yl)-2,1-benzothiazol-3-yl)-1-piperazinyl)-2-propen-1-one], the “Coupled exchange IC50” value in experiment [1] stood at 2.38 µM. The IC50 in experiment [2] is 6.08 µM; in experiment [3], over 100 µM.

For the molecule `C=CC(=O)N1CCN(c2snc3c(F)c(-c4cc(O)cc5ccccc45)c(Cl)cc23)C[C@@H]1CO` (racemic) [Example 1-16, 1-(4-(5-chloro-7-fluoro-6-(3-hydroxy-1-naphthalenyl)-2,1-benzothiazol-3-yl)-2-(hydroxmethyl)-1-piperazinyl)-2-propen-1-one], in experiment [1], the “Coupled exchange IC50” value was found to be 0.492 µM. Also, the IC50 in experiment [2] was 4.83 µM; in experiment [3], over 100 µM.

For `C=CC(=O)N1CCN(c2snc3c(F)c(-c4cc(O)ccc4Br)c(Cl)cc23)CC1` [Example 1-1, 1-(4-(6-(2-bromo-5-hydroxyphenyl)-5-chloro-7-fluorobenzo[c]isothiazol-3-yl)piperazin-1-yl)prop-2-en-1-one], in experiment [1], the “Coupled exchange IC50” value came out at 0.355 µM. Further, the values for the IC50 in experiment [2] and in experiment [3] were 2.55 µM and over 33.3 µM, respectively.

For `C=CC(=O)N1CCN(c2nnc(-c3ccccc3)c3cc(-c4c(O)cccc4F)c(Cl)cc23)CC1` [Example 30, 2-(1-(4-Acryloyl-1-piperazinyl)-7-chloro-4-phenyl-6-phthalazinyl)-3-fluorophenol], the “Coupled exchange IC50” value in experiment [1] was 7.51 µM. The IC50 is 58 µM in experiment [2] and over 100 µM in experiment [3].

Consider `C=CC(=O)N1CCN(c2nnc(-c3ccccc3C(C)C)c3cc(-c4c(O)cccc4F)c(C)nc23)CC1` [Example 27, 1-(4-(3-(2-Fluoro-6-hydroxyphenyl)-2-methyl-5-(2-(2-propanyl)phenyl)pyrido[2,3-d]pyridazin-8-yl)-1-piperazinyl)-2-propen-1-one], for which the “Coupled exchange IC50” value in experiment [1] was determined as 1.78 µM. Moreover, the values for the IC50 in experiment [2] and in experiment [3] were 12.8 µM and over 33.3 µM, respectively.

For the molecule `C=CC(=O)N1CCN(c2snc3c(F)c(-c4cc(O)cc5ccccc45)c(Cl)cc23)C(C(=O)OC)C1` (racemic) [Example 7-3, methyl 4-acryloyl-1-(5-chloro-7-fluoro-6-(3-hydroxynaphthalen-1-yl)benzo[c]isothiazol-3-yl)piperazine-2-carboxylate], in experiment [1], the “Coupled exchange IC50” value stood at 1.73 µM. The IC50 in experiment [2] is 5.83 µM; in experiment [3] it was over 100 µM.

For the molecule `C=CC(=O)N1CCN(c2nnc(-c3c(C)cccc3C)c3cc(-c4c(O)cccc4F)c(Cl)cc23)CC1` [Example 10-7, 1-(4-(7-Chloro-4-(2,6-dimethylphenyl)-6-(2-fluoro-6-hydroxyphenyl)-1-phthalazinyl)-1-piperazinyl)-2-propen-1-one], the “Coupled exchange IC50” value in experiment [1] was found to be 0.533 µM. Also, the IC50 in experiment [2] was 9.2 µM; in experiment [3] it was over 100 µM.

With `C=CC(=O)N1CCN(c2nnc(-c3ccccc3C(C)C)c3cc(-c4c(O)cccc4F)c(Cl)cc23)CC1` [Example 10-4, 1-(4-(7-chloro-6-(2-fluoro-6-hydroxyphenyl)-4-(2-(2-propanyl)phenyl)-1-phthalazinyl)-1-piperazinyl)-2-propen-1-one], the “Coupled exchange IC50” value in experiment [1] is 0.235 µM. The IC50 was 3.47 µM in experiment [2] and over 100 µM in experiment [3].

Turning to `C=CC(=O)N1CCN(c2nnc(-c3ccccc3Cl)c3cc(-c4c(O)cccc4F)c(Cl)cc23)CC1` [Example 10-11, 1-(4-(7-chloro-4-(2-chlorophenyl)-6-(2-fluoro-6-hydroxyphenyl)-1-phthalazinyl)-1-piperazinyl)-2-propen-1-one], in experiment [1], the “Coupled exchange IC50” value is 0.516 µM. Also, the half-maximal inhibitory concentration (IC50) in experiment [2] is 14.7 µM; in experiment [3] it was over 100 µM.

With `C=CC(=O)N1CCN(c2nnc(-c3ccccc3OC)c3cc(-c4c(O)cccc4F)c(Cl)cc23)CC1` [Example 10-2, 1-(4-(7-chloro-6-(2-fluoro-6-hydroxyphenyl)-4-(2-methoxyphenyl)phthalazin-1-yl)piperazin-1-yl)prop-2-en-1-one], the “Coupled exchange IC50” value in experiment [1] is 1.93 µM. In addition, the results for the IC50 in experiment [2] and in experiment [3] were 36.1 µM and over 100 µM, respectively.

These data come from US11285135B2 (AMGEN INC., priority 2016, dated 2022).
